Data from ChEMBL document CHEMBL1155282, “Design, synthesis and preliminary biological evaluation of N-hydroxy-4-(3-phenylpropanamido)benzamide (HPPB) derivatives as novel histone deacetylase inhibitors” (Eur J Med Chem, 2009).

What was measured:
[1] = target: Histone deacetylase (HDAC1 and HDAC2) (Homo sapiens, UniProt Q13547+Q92769); experiment: Inhibition of HDAC1/HDAC2 from human Hela nuclear extracts using [3H]acetylated histone peptide by colorimetry; format: protein assay
HCT-116 [2] = experiment: Cell cycle arrest in human HCT116 cells assessed as accumulation at G2 phase at 1 umol/L by flow cytometry; format: functional
HCT-116 [3] = experiment: Cell cycle arrest in human HCT116 cells assessed as accumulation at S phase at 1 umol/L by flow cytometry; format: functional
A549 = experiment: Antiproliferative activity against human A549 cells after 2 days by MTT assay; format: functional, cell-based; conditions: A549, 48 h
HCT-116 [4] = experiment: Cell cycle arrest in human HCT116 cells assessed as accumulation at G1 phase at 1 umol/L by flow cytometry; format: functional
HCT-116 [5] = experiment: Antiproliferative activity against human HCT116 cells after 2 days by MTT assay; format: functional, cell-based; conditions: HCT-116, 48 h

Structure (SMILES) | IC50 [1] [nM] | other results
COc1cc(CCC(=O)Nc2ccc(C(=O)NO)cc2)ccc1OCc1cccc(Cl)c1 | 1600 | 
COc1cc(CCC(=O)Nc2ccc(C(=O)NO)cc2)ccc1OCc1ccccn1 | 3900 | 
COc1cc(CCC(=O)Nc2ccc(C(=O)NO)cc2)ccc1OCc1ccc(Br)cc1 | 800 | 
COc1cc(CCC(=O)Nc2ccc(C(=O)NO)cc2)ccc1OCc1ccccc1Cl | 1200 | 
O=C(CCc1ccc2c(c1)OCO2)Nc1ccc(C(=O)NO)cc1 | 400 | Activity (HCT-116 [2]): 48.8%; Activity (HCT-116 [3]): 34.11%; IC50 (A549): 500 nM; Activity (HCT-116 [4]): 17.09%; IC50 (HCT-116 [5]): 60 nM
COc1cc(CCC(=O)Nc2ccc(C(=O)NO)cc2)ccc1OCc1ccc(C)cc1 | 1500 | 
COc1cc(CCC(=O)Nc2ccc(C(=O)NO)cc2)ccc1OCc1ccccc1Br | 600 | IC50 (A549): 600 nM; IC50 (HCT-116 [5]): 100 nM
COc1cc(CCC(=O)Nc2ccc(C(=O)NO)cc2)ccc1OCc1cccc(C)c1 | 2600 | 
COc1cc(CCC(=O)Nc2ccc(C(=O)NO)cc2)ccc1OCc1ccccc1 | 700 | IC50 (A549): 600 nM; IC50 (HCT-116 [5]): 120 nM
COc1cc(CCC(=O)Nc2ccc(C(=O)NO)cc2)ccc1OCc1cccc(Br)c1 | 900 | 
COc1cc(CCC(=O)Nc2ccc(C(=O)NO)cc2)ccc1OC1CCCC1 | 4000 | 
COc1cc(CCC(=O)Nc2ccc(C(=O)NO)cc2)ccc1OCc1ccccc1C | 1800 | 
COc1cc(CCC(=O)Nc2ccc(C(=O)NO)cc2)ccc1OCc1ccc(Cl)cc1 | 1400 | 

Further lines, with some results ahead:

IC50 [1] [nM] | Structure (SMILES) | other results
2900 | COc1cc(CCC(=O)Nc2ccc(C(=O)NO)cc2)ccc1OCCC(C)C | 
300 | COc1cc(CCC(=O)Nc2ccc(C(=O)NO)cc2)ccc1OCc1cccs1 | Activity (HCT-116 [2]): 47.16%; Activity (HCT-116 [3]): 24.33%; IC50 (A549): 80 nM; Activity (HCT-116 [4]): 28.51%; IC50 (HCT-116 [5]): 30 nM
2900 | CCOc1ccc(CCC(=O)Nc2ccc(C(=O)NO)cc2)cc1OC | 
3300 | COc1ccc(CCC(=O)Nc2ccc(C(=O)NO)cc2)cc1OC | 
1700 | CCCOc1ccc(CCC(=O)Nc2ccc(C(=O)NO)cc2)cc1OC | 
2200 | CCC(C)Oc1ccc(CCC(=O)Nc2ccc(C(=O)NO)cc2)cc1OC (centres undefined) | 
1600 | CCCCOc1ccc(CCC(=O)Nc2ccc(C(=O)NO)cc2)cc1OC | 
